Measurements from patent EP0008361A1, “Halogen-substituted thiophene derivatives and method for their preparation” (priority 1978, dated 1980).
Where two headings read alike, the source gives them in different places.

Legend:
[1] = system: Stubenfliegen-Larven (Musca domestica); experiment: Breeding test with housefly larvae on treated nutrient medium; assay type: in vivo; details: development observed over one week; for mortality at 10 µg/mL / mortality at 25 µg/mL: Musca domestica, 168 h, read-out: Mortalitätsrate; for mortality at 10 µg/mL: Wirkstoffkonzentration 10 ppm; for mortality at 25 µg/mL: Wirkstoffkonzentration 25 ppm; for Mortalitätsrate: Wirkstoffkonzentration 50 ppm
Procedure: Zuchtversuch mit Stubenfliegen-Larven (Musca domestica)
50 g eines Nährbodens aus Bäckerhefe, Trockenmilch, Wasser und Agar werden in warmem Zustand gründlich mit der wäßrigen Wirkstoffaufbereitung gemischt.
Nach dem Erkalten belegt man den Nährboden mit ca. 0,1 ml Fliegeneiern und beobachtet deren Entwicklung über eine Woche.

Blattläuse (Aphis fabae) = details: evaluated after 24 hours
[2] = system: Spinnmilben (Tetranychus telarius); experiment: whole plant or invertebrate; details: 144 h, read-out: Mortalitätsrate
[3] = system: Wurzelgallennemathoden (Meloidogyne incognita); experiment: Action on root-knot nematodes, drench of tomato plants in infested compost soil; assay type: in vivo; details: 30 ml drench, roots rated after 6 to 8 weeks
Procedure: Wirkung auf Wurzelgallennemathoden (Meloidogyne incognita)
Junge Tomatenpflanzen werden in je 500 g Komposterde gepflanzt, die stark mit Wurzelgallennematoden infiziert ist.
Nach 3 Tagen erfolgt die Behandlung mit der wäßrigen Wirkstoffaufbereitung durch Gießen von 30 ml Aufbereitung.
Nach 6 bis 8 Wochen bonitiert man die Wurzeln auf Gallenbildung.

[4] = system: Moskito-Larven (Aedes aegypti); experiment: whole plant or invertebrate; details: 24 h, read-out: Mortalitätsrate
[5] = system: Spinnmilben (Tetranychus telarius); details: assessed after 6 days
[6] = system: Moskito-Larven (Aedes aegypti); details: Wirkstoffkonzentration 1 ppm; 4th instar larvae, 20°C, after 24 hours
[7] = Wirkstoffkonzentration 0,05 (unit not given)

Compound	mortality at 10 µg/mL [1] [%]	mortality at 25 µg/mL [1] [%]	Mortalitätsrate (Blattläuse (Aphis fabae); [7])	mortality at 0.02 % [2] [%]	mortality at 0.05 % [2] [%]	Gallenbildung ([3]; Wirkstoffkonzentration 0,1 %)	Mortalitätsrate [1]	Mortalitätsrate [6]	also measured
CCOP(=O)(SCc1csc(Cl)c1Cl)SCC(C)C (stereo not drawn) [Wirkstoff I, O-Äthyl-S-isobutyl-S-(2,3-dichlor-thienyl-4-methyl)-dithiophosphat]	80	100	100%	100	100	–	–	–	Mortalitätsrate (Blattläuse (Aphis fabae); Wirkstoffkonzentration 0,02 (unit not given)): 90%
CCOP(=O)(SCc1csc(Cl)c1Cl)SC(C)CC (stereo not shown) [Wirkstoff III]	100	100	–	100	100	–	–	–	Gallenbildung ([3]; Wirkstoffkonzentration 0,05 %): keine Gallenbildung; mortality at 0.01 % [2]: 100%; mortality at 0.25 µg/mL [4]: 100%; mortality at 0.5 µg/mL [4]: 100%; mortality at 1 µg/mL [4]: 100%
CNC(=O)CSP(=S)(OC)OC [Wirkstoff V1, 0,0-Dimethyl-S-(N-methyl-carbamoylmethyl)-phosphordi-thioat]	–	–	–	–	–	unwirksam	–	–	–
CCOP(=S)(OCC)SCc1ccsc1 [Wirkstoff V2, 0,0-Diäthyl-S-(tienyl-4-methyl)-dithiophosphat, reference compound]	–	–	unwirksam	–	–	unwirksam	unwirksam	unwirksam	Mortalitätsrate ([5]; Wirkstoffkonzentration 0,05 %): unwirksam; mortality at 0.1 % [2]: 80%
CCOP(=S)(OCC)SCc1csc(Cl)c1Cl [Wirkstoff V3, 0,0-Diäthyl-S-(2,3-dichlor-thienyl-4-methyl)-dithiophosphat]	–	–	–	–	–	–	unwirksam	unwirksam	Mortalitätsrate ([5]; Wirkstoffkonzentration 0,1 %): unwirksam
